Laboratory results reported in the NIST ThermoML archive (doi:10.1021/je1003065).

Assay: mn = molality of the nth substance listed, in mol/kg
Conditions: Liquid, Vibrating tube method

[Br-].[Li+] [lithium bromide] + CCO
Conditions	mass density [kg/m3]
348.15 K, 5002 kPa, m1 = 0.2335	761.71
348.15 K, 5002 kPa, m1 = 1.462	838.72
348.15 K, 5004 kPa, m1 = 0.9499	807.6
348.15 K, 5004 kPa, m1 = 2.272	885.02
348.15 K, 5012 kPa, m1 = 2.833	915.98
348.15 K, 5024 kPa, m1 = 3.368	943.65
348.15 K, 5412 kPa, m1 = 0.5972	785.83
348.15 K, 10064 kPa, m1 = 0.9499	812.44
348.15 K, 19957 kPa, m1 = 2.833	928.46
348.15 K, 19985 kPa, m1 = 0.2335	776.82
348.15 K, 19985 kPa, m1 = 0.9499	821.56
348.15 K, 20024 kPa, m1 = 1.462	852.51
348.15 K, 29942 kPa, m1 = 0.9499	830.19
348.15 K, 29985 kPa, m1 = 3.368	963.31
348.15 K, 39784 kPa, m1 = 0.9499	838.22
348.15 K, 39945 kPa, m1 = 0.5972	816.93
348.15 K, 39947 kPa, m1 = 0.2335	794.15
348.15 K, 39957 kPa, m1 = 2.833	943.19
348.15 K, 39978 kPa, m1 = 3.368	970.26
348.15 K, 40002 kPa, m1 = 1.462	868.51
348.15 K, 49921 kPa, m1 = 2.272	920.25
348.15 K, 49926 kPa, m1 = 2.833	949.82
348.15 K, 49927 kPa, m1 = 0.9499	845.97
348.15 K, 59947 kPa, m1 = 0.2335	809.42
348.15 K, 59956 kPa, m1 = 0.5972	831.96
348.15 K, 59986 kPa, m1 = 1.462	882.36
348.15 K, 60002 kPa, m1 = 0.9499	853.14
348.15 K, 60024 kPa, m1 = 3.368	982.97
348.15 K, 69784 kPa, m1 = 0.9499	859.6
348.15 K, 69784 kPa, m1 = 2.272	932.62
348.15 K, 70024 kPa, m1 = 2.833	962.07
348.15 K, 79325 kPa, m1 = 0.9499	865.42
348.15 K, 79924 kPa, m1 = 3.368	994.3
348.15 K, 79956 kPa, m1 = 1.462	894.65
348.15 K, 80004 kPa, m1 = 0.2335	822.02
348.15 K, 80021 kPa, m1 = 0.5972	844.82
348.15 K, 89923 kPa, m1 = 3.368	999.65
348.15 K, 89926 kPa, m1 = 0.2335	827.8
348.15 K, 89931 kPa, m1 = 2.272	944.08
348.15 K, 89932 kPa, m1 = 1.462	900.39
348.15 K, 89935 kPa, m1 = 0.9499	871.34
348.15 K, 89954 kPa, m1 = 2.833	973.13
348.15 K, 99845 kPa, m1 = 1.462	905.92
348.15 K, 99934 kPa, m1 = 3.368	1004.87
348.15 K, 99935 kPa, m1 = 0.9499	876.39
348.15 K, 99945 kPa, m1 = 2.272	949.54
348.15 K, 99957 kPa, m1 = 0.2335	833.35
348.15 K, 99968 kPa, m1 = 2.833	978.42
348.15 K, 99985 kPa, m1 = 0.5972	855.43
348.16 K, 10021 kPa, m1 = 2.272	890.16
348.16 K, 10032 kPa, m1 = 3.368	947.88
348.16 K, 10034 kPa, m1 = 1.462	843.52
348.16 K, 19902 kPa, m1 = 0.5972	799.98
348.16 K, 29784 kPa, m1 = 2.272	906.12
348.16 K, 30024 kPa, m1 = 2.833	936.13
348.16 K, 49923 kPa, m1 = 0.2335	802.07
348.16 K, 49952 kPa, m1 = 3.368	976.77
348.16 K, 59932 kPa, m1 = 2.272	926.65
348.16 K, 69784 kPa, m1 = 1.462	888.55
348.16 K, 70013 kPa, m1 = 0.5972	838.69
348.16 K, 79926 kPa, m1 = 2.833	967.67
348.17 K, 50201 kPa, m1 = 1.462	875.81
348.17 K, 69845 kPa, m1 = 0.2335	816.09
353.09 K, 80053 kPa, m1 = 1.462	891.89
353.1 K, 9980 kPa, m1 = 1.462	839.5
353.1 K, 19703 kPa, m1 = 1.462	848.5
353.1 K, 29947 kPa, m1 = 1.462	857.25
353.1 K, 39836 kPa, m1 = 1.462	865.06
353.1 K, 49993 kPa, m1 = 1.462	872.5
353.1 K, 60279 kPa, m1 = 1.462	879.53
353.1 K, 69928 kPa, m1 = 1.462	885.72
353.1 K, 89979 kPa, m1 = 1.462	897.68
353.1 K, 99915 kPa, m1 = 1.462	903.29
353.11 K, 5043 kPa, m1 = 1.462	834.64
353.13 K, 1217 kPa, m1 = 1.462	830.74
353.13 K, 5143 kPa, m1 = 0.5972	781.1
353.13 K, 10028 kPa, m1 = 2.272	886.04
353.13 K, 20124 kPa, m1 = 2.272	895.23
353.13 K, 29947 kPa, m1 = 2.272	902.89
353.13 K, 89945 kPa, m1 = 0.2335	824.73
353.13 K, 99992 kPa, m1 = 2.272	946.74
353.14 K, 9986 kPa, m1 = 2.833	916.2
353.14 K, 19985 kPa, m1 = 0.2335	772.17
353.14 K, 20259 kPa, m1 = 0.5972	796.52
353.14 K, 29993 kPa, m1 = 0.5972	804.77
353.14 K, 39486 kPa, m1 = 2.272	909.8
353.14 K, 49965 kPa, m1 = 2.833	946.54
353.14 K, 49994 kPa, m1 = 2.272	916.93
353.14 K, 60014 kPa, m1 = 2.272	924.01
353.14 K, 69979 kPa, m1 = 2.272	929.91
353.14 K, 80071 kPa, m1 = 2.272	936.01
353.14 K, 89925 kPa, m1 = 2.833	970.1
353.14 K, 89993 kPa, m1 = 2.272	941.4
353.15 K, 1023 kPa, m1 = 0.2335	752.56
353.15 K, 1302 kPa, m1 = 2.833	908.32
353.15 K, 1405 kPa, m1 = 0.9499	799.45
353.15 K, 5002 kPa, m1 = 0.2335	756.87
353.15 K, 5015 kPa, m1 = 2.833	911.75
353.15 K, 5074 kPa, m1 = 0.9499	803.32
353.15 K, 9985 kPa, m1 = 0.9499	808.32
353.15 K, 10021 kPa, m1 = 0.2335	762.65
353.15 K, 19924 kPa, m1 = 0.9499	817.86
353.15 K, 19927 kPa, m1 = 2.833	924.6
353.15 K, 29784 kPa, m1 = 0.9499	826.6
353.15 K, 29974 kPa, m1 = 0.2335	781.57
